According to patent publication US20040248775A1, “Methods for screening inhibitors of apoptosis” (Wyeth, priority 2003, published 2004):

Target: T1, wild-type NALP1 (Homo sapiens, UniProt Q9C000)
T1 construct: to generate full-length NALP1 in frame with EGFP; expressed in transfected cells; host or cells: HeLa cells, transient transfection with the pEGFP-N3 based plasmid; S-100 extract used
T1 sequence (Q9C000 1-1473): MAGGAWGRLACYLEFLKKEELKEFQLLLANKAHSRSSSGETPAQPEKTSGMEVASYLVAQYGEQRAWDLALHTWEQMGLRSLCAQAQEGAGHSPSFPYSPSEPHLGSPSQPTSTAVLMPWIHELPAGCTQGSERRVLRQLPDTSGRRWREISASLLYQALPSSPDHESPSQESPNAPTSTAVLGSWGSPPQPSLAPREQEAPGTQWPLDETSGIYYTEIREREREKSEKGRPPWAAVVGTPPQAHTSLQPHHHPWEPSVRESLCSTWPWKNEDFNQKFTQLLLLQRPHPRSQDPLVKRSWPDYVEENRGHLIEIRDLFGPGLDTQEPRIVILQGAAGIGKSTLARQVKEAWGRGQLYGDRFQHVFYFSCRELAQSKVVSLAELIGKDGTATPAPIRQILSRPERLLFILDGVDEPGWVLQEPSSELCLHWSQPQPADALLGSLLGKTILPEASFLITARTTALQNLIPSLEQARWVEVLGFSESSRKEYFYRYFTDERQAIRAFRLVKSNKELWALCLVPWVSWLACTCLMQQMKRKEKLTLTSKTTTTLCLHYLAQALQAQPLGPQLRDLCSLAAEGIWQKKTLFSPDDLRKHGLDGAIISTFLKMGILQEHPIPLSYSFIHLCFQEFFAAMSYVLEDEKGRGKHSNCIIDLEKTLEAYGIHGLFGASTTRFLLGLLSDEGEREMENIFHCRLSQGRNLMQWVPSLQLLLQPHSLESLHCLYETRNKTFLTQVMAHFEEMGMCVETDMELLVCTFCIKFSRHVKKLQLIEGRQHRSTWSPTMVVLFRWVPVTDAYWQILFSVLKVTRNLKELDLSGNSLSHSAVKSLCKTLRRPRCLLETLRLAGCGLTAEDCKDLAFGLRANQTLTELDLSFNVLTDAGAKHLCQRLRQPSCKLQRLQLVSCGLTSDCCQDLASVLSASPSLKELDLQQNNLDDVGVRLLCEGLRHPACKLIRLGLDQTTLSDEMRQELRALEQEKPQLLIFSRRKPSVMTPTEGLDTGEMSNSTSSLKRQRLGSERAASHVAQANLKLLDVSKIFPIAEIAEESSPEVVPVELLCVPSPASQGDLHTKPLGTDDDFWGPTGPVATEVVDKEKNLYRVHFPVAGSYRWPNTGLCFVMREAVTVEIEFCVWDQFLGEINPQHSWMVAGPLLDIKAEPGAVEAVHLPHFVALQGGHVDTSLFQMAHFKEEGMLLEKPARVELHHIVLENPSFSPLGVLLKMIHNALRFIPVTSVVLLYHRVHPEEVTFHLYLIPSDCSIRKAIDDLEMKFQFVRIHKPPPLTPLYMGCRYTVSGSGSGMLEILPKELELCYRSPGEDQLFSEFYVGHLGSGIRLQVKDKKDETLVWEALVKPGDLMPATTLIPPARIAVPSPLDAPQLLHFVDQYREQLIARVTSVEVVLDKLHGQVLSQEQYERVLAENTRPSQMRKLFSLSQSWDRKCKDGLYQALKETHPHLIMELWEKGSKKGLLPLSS
Test: Fluorimetric DEVDase (caspase-3) assay in HeLa cell extracts expressing wild-type NALP1-EGFP
Type: biochemical
Conditions: 2 mM dATP, 2 mM MgCl2, 1 hour, Ac-DEVD-AMC substrate
Description: Cell extract preparation and fluorimetric assay of caspase activity. Preparation of cell extracts, dATP incubation and caspase-3 activities assays were performed as described by Liu et al. (1996). Briefly, HeLa cells were grown in DMEM, 10% FBS. Cells were plated in T175 flasks to 60% confluence. Control vector pEGFP or wild-type or NBS mutant NALP1-EGFP expression plasmids were transfected into HeLa cells using Lipofectamine Plus. Cells were collected in homogenization buffer (20 mM HEPES pH 7.5, 10 mM KCl, 1 mM sodium EDTA, […], 1 mM sodium EGTA, 0.1% CHAPS, 1 mM DTT, 0.1 mM PMSF and protease inhibitor cocktail tablets (Roche)), 24 hours after transfection. Cells were chilled on ice for 15 minutes and homogenized by douncing 30 times in a glass douncer. Samples were centrifuged at 1000×g for 10 minutes at 4° C. […] After 2 hours incubation, liberation of AMC (7-amino-4-methylcoumarin) from the substrate was monitored using excitation/emission wavelength pairs (λex/λem) of 380/460 nm using a SpectraFluor Plus instrument (Tecan). Triplicate samples were evaluated with or without specific inhibitors. […] Normalized data from multiple experiments were expressed as means±standard deviation. For each experiment, the expression of EGFP-tagged NALP1 proteins was analyzed by anti-GFP immunoblot and quantified by densitometry.

Nc1ncnc2c1ncn2[C@H]1C[C@H](O)[C@@H](COP(=O)(O)OP(=O)(O)OP(=O)(O)O)O1 [dATP]
DEVDase activity, extracts with wild-type NALP1: significantly elevated
